Results: ChEMBL document CHEMBL5576094, “A Diterpenoid of the Medicinal Plant Andrographis paniculata Targets Cutaneous TRPV3 Channel and Relieves Itch” (J Nat Prod, 2024)
The source made the active and inactive calls. The calls are words filed in the database; no cut-off is given here.

Assays:
[1] = test system: Mus musculus; assay: Antipruritic activity in histamine-induced scratching ICR mouse model assessed as number of scratching bouts at 10 mg/kg, po administered via gavage pretreated for 30 mins followed by histamine stimulation and measured for 30 mins (reference value: 123 +/- 6); type: functional; settings: time 60 min, 1 h
[2] = test system: Mus musculus; assay: Antipruritic activity in histamine-induced scratching ICR mouse model assessed as inhibition of neck scratching behavior at 10 mg/kg, po administered via gavage pretreated for 30 mins followed by histamine stimulation and measured for 30 mins relative to control; type: functional; settings: 1 h, time 60 min
[3] = biological target: T1, Transient receptor potential cation channel subfamily V member 3 (Homo sapiens) (UniProt Q8NET8); assay: Irreversible inhibition of human TRPV3 expressed in CHO cells assessed as reduction in 2-APB induced channel current at 10 uM at -80 mV incubated prior to compound washout followed by 2-APB addition by whole-cell patch clamp electrophysiology; type: cell-based
T1 sequence (whole entry): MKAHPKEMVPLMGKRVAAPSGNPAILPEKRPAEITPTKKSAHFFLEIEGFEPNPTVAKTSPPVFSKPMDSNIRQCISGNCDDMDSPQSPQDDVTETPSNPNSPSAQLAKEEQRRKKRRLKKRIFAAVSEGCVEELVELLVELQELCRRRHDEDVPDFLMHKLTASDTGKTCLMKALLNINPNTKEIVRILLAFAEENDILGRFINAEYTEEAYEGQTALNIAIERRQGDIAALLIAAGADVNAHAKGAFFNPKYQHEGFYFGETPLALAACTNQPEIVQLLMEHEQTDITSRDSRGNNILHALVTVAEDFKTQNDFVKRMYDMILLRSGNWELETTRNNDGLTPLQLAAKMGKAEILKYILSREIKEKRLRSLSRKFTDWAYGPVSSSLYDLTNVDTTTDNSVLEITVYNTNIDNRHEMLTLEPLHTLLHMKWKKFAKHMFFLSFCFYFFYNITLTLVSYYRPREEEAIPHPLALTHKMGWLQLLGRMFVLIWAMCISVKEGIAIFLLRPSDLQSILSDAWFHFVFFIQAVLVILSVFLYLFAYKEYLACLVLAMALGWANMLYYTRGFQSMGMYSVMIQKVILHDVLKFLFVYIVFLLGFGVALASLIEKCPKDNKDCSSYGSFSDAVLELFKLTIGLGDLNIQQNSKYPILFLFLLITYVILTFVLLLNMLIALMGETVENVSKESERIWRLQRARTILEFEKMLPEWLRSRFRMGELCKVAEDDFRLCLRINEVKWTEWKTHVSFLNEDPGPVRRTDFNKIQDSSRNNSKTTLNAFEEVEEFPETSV

[4] = biological target: Transient receptor potential cation channel subfamily V member 4 (Homo sapiens) (UniProt Q9HBA0); assay: Inhibition of human TRPV4 expressed in CHO cells assessed as reduction in GSK1016790A-induced intracellular calcium flux at 20 uM measured for 60 mins by Fluo-4-AM dye based fluorescence assay; type: cell-based
[5] = species on record: Mus musculus; assay: Antipruritic activity in histamine-induced scratching ICR mouse model assessed as number of scratching bouts at 3 uM, ID pretreated for 30 mins followed by histamine stimulation and measured for 30 mins (reference value: 123 +/- 6); type: functional; settings: time 60 min, 1 h
[6] = biological target: T2, Acid-sensing ion channel 1 (Rattus norvegicus) (UniProt P55926); assay: Inhibition of rat ASIC1a expressed in Xenopus Oocytes at 20 uM at holding potential of -50 mV by whole-cell electrophysiology; type: cell-based; settings: Oocyte
T2 sequence (whole entry): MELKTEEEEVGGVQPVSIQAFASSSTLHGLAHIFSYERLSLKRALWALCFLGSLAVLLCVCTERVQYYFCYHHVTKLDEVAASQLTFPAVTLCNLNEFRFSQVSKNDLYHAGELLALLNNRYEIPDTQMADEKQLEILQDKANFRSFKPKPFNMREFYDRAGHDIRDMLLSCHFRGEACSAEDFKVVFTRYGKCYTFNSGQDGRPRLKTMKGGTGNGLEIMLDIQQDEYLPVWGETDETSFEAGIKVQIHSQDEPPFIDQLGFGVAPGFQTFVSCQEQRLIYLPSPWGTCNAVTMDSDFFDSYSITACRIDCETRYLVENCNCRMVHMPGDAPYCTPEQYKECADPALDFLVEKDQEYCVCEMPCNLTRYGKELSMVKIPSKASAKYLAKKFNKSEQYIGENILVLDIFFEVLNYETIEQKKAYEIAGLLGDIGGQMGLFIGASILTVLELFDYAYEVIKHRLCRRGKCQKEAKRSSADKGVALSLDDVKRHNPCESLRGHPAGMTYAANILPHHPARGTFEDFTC

[7] = species on record: Mus musculus; assay: Antipruritic activity in histamine-induced scratching ICR mouse model assessed as number of scratching bouts at 30 uM, ID pretreated for 30 mins followed by histamine stimulation and measured for 30 mins (reference value: 123 +/- 6); type: functional; settings: time 60 min, 1 h
[8] = species on record: Mus musculus; assay: Antipruritic activity in histamine-induced scratching ICR mouse model assessed as number of scratching bouts at 0.3 uM, ID pretreated for 30 mins followed by histamine stimulation and measured for 30 mins (reference value: 123 +/- 6); type: functional; settings: time 60 min, 1 h
[9] = species on record: Mus musculus; assay: Antipruritic activity in carvacrol-induced scratching ICR mouse model assessed as number of scratching bouts at 100 uM, ID pretreated for 30 mins followed by carvacrol stimulation and measured for 30 mins (reference value: 174 +/- 7); type: functional; settings: time 60 min, 1 h
[10] = biological target: T3, Transient receptor potential cation channel subfamily V member 3 (Homo sapiens, UniProt Q8NET8); assay: Inhibition of TRPV3 in human HaCaT cells assessed as reduction in carvacrol-induced calcium influx measured for 60 mins by Fluo-4-AM dye based fluorescence assay; type: cell-based
T3 sequence (Q8NET8 whole entry): T1 sequence (whole entry)

[11] = biological target: T1, Transient receptor potential cation channel subfamily V member 3 (Homo sapiens); assay: Inhibition of human TRPV3 expressed in CHO cells assessed as reduction in 2-APB induced channel current at 10 uM at +80 mV by whole-cell patch clamp electrophysiology; type: cell-based
[12] = biological target: T4, Acid-sensing ion channel 3 (Homo sapiens) (UniProt Q9UHC3); assay: Inhibition of human ASIC3 expressed in Xenopus Oocytes at 20 uM at holding potential of -50 mV by whole-cell electrophysiology; type: cell-based; settings: Oocyte
T4 sequence (whole entry): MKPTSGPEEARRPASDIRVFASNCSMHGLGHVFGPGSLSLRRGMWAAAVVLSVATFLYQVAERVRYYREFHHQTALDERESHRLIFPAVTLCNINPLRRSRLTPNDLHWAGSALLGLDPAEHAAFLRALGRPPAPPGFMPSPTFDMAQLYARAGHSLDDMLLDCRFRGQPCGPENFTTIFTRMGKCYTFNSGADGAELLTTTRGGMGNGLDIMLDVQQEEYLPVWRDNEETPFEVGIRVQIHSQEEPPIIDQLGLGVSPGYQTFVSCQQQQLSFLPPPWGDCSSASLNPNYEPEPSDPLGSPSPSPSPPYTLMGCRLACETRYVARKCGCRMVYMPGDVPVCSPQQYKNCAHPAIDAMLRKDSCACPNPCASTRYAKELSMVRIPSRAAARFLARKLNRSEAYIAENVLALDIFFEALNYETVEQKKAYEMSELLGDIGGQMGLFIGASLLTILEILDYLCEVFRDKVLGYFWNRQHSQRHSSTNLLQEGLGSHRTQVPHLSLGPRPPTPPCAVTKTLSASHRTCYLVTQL

[13] = species on record: Mus musculus; assay: Antipruritic activity in histamine-induced scratching ICR mouse model assessed as inhibition of neck scratching behavior at 3 uM, ID pretreated for 30 mins followed by histamine stimulation and measured for 10 mins relative to control; type: functional; settings: 40 min
[14] = biological target: Transient receptor potential cation channel subfamily A member 1 (Rattus norvegicus) (UniProt Q6RI86); assay: Inhibition of rat TRPA1 expressed in CHO cells assessed as reduction in AITC-induced intracellular calcium flux at 20 uM measured for 60 mins by Fluo-4-AM dye based fluorescence assay; type: cell-based
[15] = biological target: T1, Transient receptor potential cation channel subfamily V member 3 (Homo sapiens); assay: Inhibition of human TRPV3 expressed in CHO cells assessed as reduction in 2-APB induced channel current at +80 mV by whole-cell patch clamp electrophysiology relative to control; type: cell-based
[16] = species on record: Mus musculus; assay: Antipruritic activity in carvacrol-induced scratching ICR mouse model assessed as number of scratching bouts at 30 uM, ID pretreated for 30 mins followed by carvacrol stimulation and measured for 30 mins (reference value: 174 +/- 7); type: functional; settings: time 60 min, 1 h
[17] = biological target: T3, Transient receptor potential cation channel subfamily V member 3; assay: Inhibition of human TRPV3 expressed in CHO cells assessed as reduction in 2-APB induced channel current at -80 mV by whole-cell patch clamp electrophysiology; type: cell-based
[18] = biological target: T1, Transient receptor potential cation channel subfamily V member 3 (Homo sapiens); assay: Inhibition of human TRPV3 expressed in CHO cells assessed as reduction in 2-APB induced maximal channel current at voltage ramps from -80 to +80 mV by whole-cell patch clamp electrophysiology relative to control; type: cell-based
[19] = biological target: T1, Transient receptor potential cation channel subfamily V member 3 (Homo sapiens); assay: Inhibition of human TRPV3 expressed in CHO cells assessed as reduction in 2-APB-induced intracellular calcium flux at 20 uM measured for 60 mins by Fluo-4-AM dye based fluorescence assay; type: cell-based
[20] = test system: HaCaT; assay: Cytotoxicity against human HaCaT cells assessed as reduction in cell viability measured after 24 hrs by MTT assay; type: toxicity, cell-based
[21] = biological target: T1, Transient receptor potential cation channel subfamily V member 3 (Homo sapiens); assay: Inhibition of human TRPV3 expressed in CHO cells assessed as reduction in 2-APB induced channel current at -80 mV by whole-cell patch clamp electrophysiology relative to control; type: cell-based
[22] = Induction of pruritic reaction in ICR mouse assessed as number of scratching bouts at 30 uM, ID measured within 30 mins (reference value: 6 +/- 1 No_Unit); type: toxicity; settings: other, 0.5 h
[23] = biological target: T1, Transient receptor potential cation channel subfamily V member 3 (Homo sapiens); assay: Irreversible inhibition of human TRPV3 expressed in CHO cells assessed as reduction in 2-APB induced channel current at 10 uM at +80 mV incubated prior to compound washout followed by 2-APB addition by whole-cell patch clamp electrophysiology; type: cell-based
[24] = biological target: Transient receptor potential cation channel subfamily V member 1 (Rattus norvegicus) (UniProt O35433); assay: Inhibition of rat TRPV1 expressed in CHO cells assessed as reduction in capsaicin-induced intracellular calcium flux at 20 uM measured for 60 mins by Fluo-4-AM dye based fluorescence assay; type: cell-based
[25] = biological target: T3, Transient receptor potential cation channel subfamily V member 3; assay: Inhibition of human TRPV3 expressed in CHO cells assessed as reduction in 2-APB induced channel current at +80 mV by whole-cell patch clamp electrophysiology; type: cell-based
[26] = species on record: Mus musculus; assay: Antipruritic activity in carvacrol-induced scratching ICR mouse model assessed as inhibition of neck scratching behavior at 100 uM, ID pretreated for 30 mins followed by carvacrol stimulation and measured for 30 mins relative to control; type: functional; settings: 1 h, time 60 min
[27] = biological target: T1, Transient receptor potential cation channel subfamily V member 3 (Homo sapiens); assay: Inhibition of human TRPV3 expressed in CHO cells assessed as reduction in 2-APB induced channel current at 10 uM at -80 mV by whole-cell patch clamp electrophysiology; type: cell-based
[28] = species on record: Mus musculus; assay: Antipruritic activity in histamine-induced scratching ICR mouse model assessed as inhibition of neck scratching behavior at 3 uM, ID pretreated for 30 mins followed by histamine stimulation and measured after 10 to 30 mins; type: functional, organism-based; settings: time 40-60 min
[29] = Induction of pruritic reaction in ICR mouse assessed as number of scratching bouts at 100 uM, ID measured within 30 mins (reference value: 6 +/- 1 No_Unit); type: toxicity; settings: other, 0.5 h
[30] = biological target: T1, Transient receptor potential cation channel subfamily V member 3 (Homo sapiens); assay: Inhibition of TRPV3 in human HaCaT cells assessed as reduction in carvacrol-induced calcium influx measured for 60 mins by Fluo-4-AM dye based fluorescence assay relative to control; type: cell-based

Sequence of Transient receptor potential cation channel subfamily V member 4 (Homo sapiens) (Q9HBA0 whole entry): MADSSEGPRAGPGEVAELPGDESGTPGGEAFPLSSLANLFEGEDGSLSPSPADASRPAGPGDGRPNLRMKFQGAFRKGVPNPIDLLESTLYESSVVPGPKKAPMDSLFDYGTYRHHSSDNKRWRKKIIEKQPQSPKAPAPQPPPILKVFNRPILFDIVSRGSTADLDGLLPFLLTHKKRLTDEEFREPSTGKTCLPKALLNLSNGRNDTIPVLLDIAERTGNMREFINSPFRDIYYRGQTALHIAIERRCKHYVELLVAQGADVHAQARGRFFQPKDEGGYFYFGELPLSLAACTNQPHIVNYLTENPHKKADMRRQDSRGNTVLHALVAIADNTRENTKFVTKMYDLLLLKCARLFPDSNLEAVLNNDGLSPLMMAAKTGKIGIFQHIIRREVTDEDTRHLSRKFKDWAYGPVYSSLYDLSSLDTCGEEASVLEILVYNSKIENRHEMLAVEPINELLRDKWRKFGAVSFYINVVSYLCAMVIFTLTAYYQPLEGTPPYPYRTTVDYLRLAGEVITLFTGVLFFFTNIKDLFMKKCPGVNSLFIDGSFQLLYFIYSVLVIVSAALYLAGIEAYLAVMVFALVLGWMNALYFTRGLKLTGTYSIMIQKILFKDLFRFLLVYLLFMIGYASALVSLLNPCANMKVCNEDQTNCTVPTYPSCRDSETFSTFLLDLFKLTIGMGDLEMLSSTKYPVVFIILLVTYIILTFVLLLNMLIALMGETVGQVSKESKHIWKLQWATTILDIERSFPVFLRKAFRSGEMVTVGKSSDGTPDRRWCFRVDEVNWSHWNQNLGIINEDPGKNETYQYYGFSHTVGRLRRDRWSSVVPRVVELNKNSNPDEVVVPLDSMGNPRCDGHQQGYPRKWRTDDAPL
Sequence of Transient receptor potential cation channel subfamily A member 1 (Rattus norvegicus) (Q6RI86 whole entry): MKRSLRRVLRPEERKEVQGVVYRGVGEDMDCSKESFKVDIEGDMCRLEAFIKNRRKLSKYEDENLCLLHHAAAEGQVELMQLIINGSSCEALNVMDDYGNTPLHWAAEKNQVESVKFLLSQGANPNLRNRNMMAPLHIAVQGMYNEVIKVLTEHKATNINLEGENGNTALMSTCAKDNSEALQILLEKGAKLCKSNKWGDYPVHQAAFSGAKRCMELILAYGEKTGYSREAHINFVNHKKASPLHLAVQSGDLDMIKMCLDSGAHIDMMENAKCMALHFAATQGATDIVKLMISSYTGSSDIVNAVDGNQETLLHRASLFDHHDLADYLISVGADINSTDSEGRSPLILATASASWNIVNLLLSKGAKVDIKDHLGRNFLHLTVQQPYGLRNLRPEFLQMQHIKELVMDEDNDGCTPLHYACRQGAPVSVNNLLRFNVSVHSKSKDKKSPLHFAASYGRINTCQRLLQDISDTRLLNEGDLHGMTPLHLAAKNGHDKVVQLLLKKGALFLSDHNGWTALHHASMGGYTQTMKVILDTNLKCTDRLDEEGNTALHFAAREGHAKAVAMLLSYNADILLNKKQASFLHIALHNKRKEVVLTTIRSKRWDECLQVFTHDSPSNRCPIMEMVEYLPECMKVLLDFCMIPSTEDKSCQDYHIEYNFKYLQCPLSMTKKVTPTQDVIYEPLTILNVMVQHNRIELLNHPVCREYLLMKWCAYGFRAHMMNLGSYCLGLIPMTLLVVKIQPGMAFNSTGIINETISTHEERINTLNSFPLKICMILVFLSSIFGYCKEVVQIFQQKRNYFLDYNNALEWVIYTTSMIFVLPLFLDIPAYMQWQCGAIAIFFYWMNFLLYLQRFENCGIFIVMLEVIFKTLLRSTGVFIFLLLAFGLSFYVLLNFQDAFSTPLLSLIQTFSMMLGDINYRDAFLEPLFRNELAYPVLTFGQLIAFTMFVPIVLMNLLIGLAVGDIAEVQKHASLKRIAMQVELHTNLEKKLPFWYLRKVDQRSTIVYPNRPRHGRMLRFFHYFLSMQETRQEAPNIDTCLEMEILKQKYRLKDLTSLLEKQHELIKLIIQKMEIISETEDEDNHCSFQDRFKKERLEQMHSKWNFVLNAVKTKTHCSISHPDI
Sequence of Transient receptor potential cation channel subfamily V member 1 (Rattus norvegicus) (O35433 whole entry): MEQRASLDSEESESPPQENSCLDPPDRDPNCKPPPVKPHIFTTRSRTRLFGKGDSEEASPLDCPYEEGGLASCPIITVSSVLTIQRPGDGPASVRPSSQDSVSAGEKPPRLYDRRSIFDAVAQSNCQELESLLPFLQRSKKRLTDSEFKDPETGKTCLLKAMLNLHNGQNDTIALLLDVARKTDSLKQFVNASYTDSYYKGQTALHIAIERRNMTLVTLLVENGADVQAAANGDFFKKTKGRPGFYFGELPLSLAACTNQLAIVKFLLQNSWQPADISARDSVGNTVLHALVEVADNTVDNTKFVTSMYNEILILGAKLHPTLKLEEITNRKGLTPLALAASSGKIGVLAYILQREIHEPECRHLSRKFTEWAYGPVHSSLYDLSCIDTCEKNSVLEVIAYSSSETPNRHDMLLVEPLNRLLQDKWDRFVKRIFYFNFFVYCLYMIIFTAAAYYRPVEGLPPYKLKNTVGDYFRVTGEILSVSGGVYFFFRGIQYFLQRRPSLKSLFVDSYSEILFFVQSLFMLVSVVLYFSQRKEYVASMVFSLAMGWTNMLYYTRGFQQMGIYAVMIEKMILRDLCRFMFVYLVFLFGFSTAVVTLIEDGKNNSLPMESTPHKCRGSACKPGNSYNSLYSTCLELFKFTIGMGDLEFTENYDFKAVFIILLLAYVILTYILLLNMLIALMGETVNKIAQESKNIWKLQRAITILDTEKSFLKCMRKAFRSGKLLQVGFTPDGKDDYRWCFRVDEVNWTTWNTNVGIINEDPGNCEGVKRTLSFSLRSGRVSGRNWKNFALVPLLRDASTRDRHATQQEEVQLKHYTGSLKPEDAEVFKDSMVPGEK

## CCOC(=O)N1CCC(=C2c3ccc(Cl)cc3CCc3cccnc32)CC1 [LORATADINE]
[1]
  Activity: 72
[2]
  inhibition in vivo at 10 mg/kg: ~40%

## C=C1CC[C@@H]2[C@](C)(CO)[C@H](O)CC[C@@]2(C)[C@@H]1/C=C/C1=CCOC1=O
[3]
  inhibition: Active
[4]
  inhibition: inactive
[5]
  Activity: 57
[6]
  inhibition: inactive
[7]
  Activity: 59
[8]
  Activity: 95
[9]
  Activity: 129
[10]
  IC50: 850 nM
[11]
  inhibition: Active
[12]
  inhibition: inactive
[13]
  inhibition in vivo at 3 µM: ~40%
[14]
  inhibition: inactive
[15]
  Imax: 49%
[16]
  Activity: 178
[17]
  IC50: 560 nM
[18]
  fold change (FC): 2
[19]
  inhibition: Active
[20]
  Activity: Non-Toxic
[21]
  Imax: 50%
[22]
  Activity: 8.1
[23]
  inhibition: Active
[24]
  inhibition: inactive
[25]
  IC50: 800 nM
[26]
  inhibition in vivo at 100 µM: ~26%
[27]
  inhibition: Active
[28]
  inhibition: Active
[29]
  Activity: 10.6
[30]
  Imax: 43%
